Measurements reported in ChEMBL document CHEMBL4765227, “Hit to lead optimization of a series of N-[4-(1,3-benzothiazol-2-yl)phenyl]acetamides as monoacylglycerol lipase inhibitors with potential anticancer activity” (Eur J Med Chem, 2016).

Columns and labels:
Type in all cases: functional
Settings in all cases: read-out: GI
[1] = system: HOP-92; test: Growth inhibition of human HOP-92 cells at 10 uM incubated for 48 hrs by sulforhodamine B assay relative to control
[2] = system: K562; test: Growth inhibition of human K562 cells at 10 uM incubated for 48 hrs by sulforhodamine B assay relative to control
[3] = system: SN12C; test: Growth inhibition of human SN12C cells at 10 uM incubated for 48 hrs by sulforhodamine B assay relative to control
[4] = system: MDA-MB-468; test: Growth inhibition of human MDA-MB-468 cells at 10 uM incubated for 48 hrs by sulforhodamine B assay relative to control
[5] = system: BT-549; test: Growth inhibition of human BT-549 cells at 10 uM incubated for 48 hrs by sulforhodamine B assay relative to control
[6] = system: DU-145; test: Growth inhibition of human DU-145 cells at 10 uM incubated for 48 hrs by sulforhodamine B assay relative to control
[7] = system: SK-MEL-5; test: Growth inhibition of human SK-MEL-5 cells at 10 uM incubated for 48 hrs by sulforhodamine B assay relative to control
[8] = system: MDA-MB-435; test: Growth inhibition of human MDA-MB-435 cells at 10 uM incubated for 48 hrs by sulforhodamine B assay relative to control
[9] = system: UO-31; test: Growth inhibition of human UO-31 cells at 10 uM incubated for 48 hrs by sulforhodamine B assay relative to control
[10] = system: LOX IMVI; test: Growth inhibition of human LOX IMVI cells at 10 uM incubated for 48 hrs by sulforhodamine B assay relative to control
[11] = system: SK-MEL-28; test: Growth inhibition of human SK-MEL-28 cells at 10 uM incubated for 48 hrs by sulforhodamine B assay relative to control
[12] = system: CCRF-CEM; test: Growth inhibition of human CCRF-CEM cells at 10 uM incubated for 48 hrs by sulforhodamine B assay relative to control
[13] = system: MCF7; test: Growth inhibition of human MCF7 cells at 10 uM incubated for 48 hrs by sulforhodamine B assay relative to control
[14] = system: M14; test: Growth inhibition of human M14 cells at 10 uM incubated for 48 hrs by sulforhodamine B assay relative to control
[15] = system: HT-29; test: Growth inhibition of human HT-29 cells at 10 uM incubated for 48 hrs by sulforhodamine B assay relative to control
[16] = system: SF-295; test: Growth inhibition of human SF-295 cells at 10 uM incubated for 48 hrs by sulforhodamine B assay relative to control
[17] = system: NCI-H226; test: Growth inhibition of human NCI-H226 cells at 10 uM incubated for 48 hrs by sulforhodamine B assay relative to control
[18] = system: NCI-H23; test: Growth inhibition of human NCI-H23 cells at 10 uM incubated for 48 hrs by sulforhodamine B assay relative to control
[19] = system: UACC-62; test: Growth inhibition of human UACC-62 cells at 10 uM incubated for 48 hrs by sulforhodamine B assay relative to control
[20] = system: NCI/ADR-RES; test: Growth inhibition of human NCI/ADR-RES cells at 10 uM incubated for 48 hrs by sulforhodamine B assay relative to control
[21] = system: MDA-MB-231; test: Growth inhibition of human MDA-MB-231 cells at 10 uM incubated for 48 hrs by sulforhodamine B assay relative to control
[22] = system: TK-10; test: Growth inhibition of human TK-10 cells at 10 uM incubated for 48 hrs by sulforhodamine B assay relative to control
[23] = system: IGROV-1; test: Growth inhibition of human IGROV-1 cells at 10 uM incubated for 48 hrs by sulforhodamine B assay relative to control
[24] = system: NCI-H522; test: Growth inhibition of human NCI-H522 cells at 10 uM incubated for 48 hrs by sulforhodamine B assay relative to control
[25] = system: HL-60(TB); test: Growth inhibition of human HL-60(TB) cells at 10 uM incubated for 48 hrs by sulforhodamine B assay relative to control
[26] = system: KM12; test: Growth inhibition of human KM12 cells at 10 uM incubated for 48 hrs by sulforhodamine B assay relative to control
[27] = system: MOLT-4; test: Growth inhibition of human MOLT-4 cells at 10 uM incubated for 48 hrs by sulforhodamine B assay relative to control
[28] = system: OVCAR-3; test: Growth inhibition of human OVCAR-3 cells at 10 uM incubated for 48 hrs by sulforhodamine B assay relative to control
[29] = system: HCC 2998; test: Growth inhibition of human HCC 2998 cells at 10 uM incubated for 48 hrs by sulforhodamine B assay relative to control
[30] = system: SNB-19; test: Growth inhibition of human SNB-19 cells at 10 uM incubated for 48 hrs by sulforhodamine B assay relative to control
[31] = system: OVCAR-8; test: Growth inhibition of human OVCAR-8 cells at 10 uM incubated for 48 hrs by sulforhodamine B assay relative to control
[32] = system: Hs-578T; test: Growth inhibition of human Hs-578T cells at 10 uM incubated for 48 hrs by sulforhodamine B assay relative to control
[33] = system: OVCAR-4; test: Growth inhibition of human OVCAR-4 cells at 10 uM incubated for 48 hrs by sulforhodamine B assay relative to control
[34] = system: UACC-257; test: Growth inhibition of human UACC-257 cells at 10 uM incubated for 48 hrs by sulforhodamine B assay relative to control
[35] = system: PC-3; test: Growth inhibition of human PC-3 cells at 10 uM incubated for 48 hrs by sulforhodamine B assay relative to control
[36] = system: OVCAR-5; test: Growth inhibition of human OVCAR-5 cells at 10 uM incubated for 48 hrs by sulforhodamine B assay relative to control
[37] = system: SF-268; test: Growth inhibition of human SF-268 cells at 10 uM incubated for 48 hrs by sulforhodamine B assay relative to control
[38] = system: SNB-75; test: Growth inhibition of human SNB-75 cells at 10 uM incubated for 48 hrs by sulforhodamine B assay relative to control
[39] = system: Malme-3M; test: Growth inhibition of human Malme-3M cells at 10 uM incubated for 48 hrs by sulforhodamine B assay relative to control
[40] = system: SF-539; test: Growth inhibition of human SF-539 cells at 10 uM incubated for 48 hrs by sulforhodamine B assay relative to control
[41] = system: HCT-15; test: Growth inhibition of human HCT-15 cells at 10 uM incubated for 48 hrs by sulforhodamine B assay relative to control
[42] = system: RXF 393; test: Growth inhibition of human RXF 393 cells at 10 uM incubated for 48 hrs by sulforhodamine B assay relative to control
[43] = system: HCT-116; test: Growth inhibition of human HCT-116 cells at 10 uM incubated for 48 hrs by sulforhodamine B assay relative to control
[44] = system: COLO 205; test: Growth inhibition of human COLO 205 cells at 10 uM incubated for 48 hrs by sulforhodamine B assay relative to control

O=C(CNc1nnc(-c2ccc(Cl)cc2)o1)Nc1ccc(-c2nc3ccccc3s2)cc1
inhibition of growth at 10 µM [1]: 12.1% | inhibition of growth at 10 µM [2]: 14.4% | inhibition of growth at 10 µM [3]: 5.48% | inhibition of growth at 10 µM [4]: 110% | inhibition of growth at 10 µM [5]: 13% | inhibition of growth at 10 µM [6]: 1.53% | inhibition of growth at 10 µM [7]: 7.93% | inhibition of growth at 10 µM [8]: 2.95% | inhibition of growth at 10 µM [9]: 26.7% | inhibition of growth at 10 µM [10]: 143% | inhibition of growth at 10 µM [11]: -16.7% | inhibition of growth at 10 µM [12]: 46.7% | inhibition of growth at 10 µM [13]: 65.5% | inhibition of growth at 10 µM [14]: -1.85% | inhibition of growth at 10 µM [15]: 4.3% | inhibition of growth at 10 µM [16]: -1.52% | inhibition of growth at 10 µM [17]: 17.1% | inhibition of growth at 10 µM [18]: 11.3% | inhibition of growth at 10 µM [19]: 13.9% | inhibition of growth at 10 µM [20]: 1.07% | inhibition of growth at 10 µM [21]: 1.2% | inhibition of growth at 10 µM [22]: 8.25% | inhibition of growth at 10 µM [23]: 5.85% | inhibition of growth at 10 µM [24]: 22.9% | inhibition of growth at 10 µM [25]: 6.27% | inhibition of growth at 10 µM [26]: 2.99% | inhibition of growth at 10 µM [27]: 66.8% | inhibition of growth at 10 µM [28]: 2.27% | inhibition of growth at 10 µM [29]: 6.46% | inhibition of growth at 10 µM [30]: 9.4% | inhibition of growth at 10 µM [31]: -2.95% | inhibition of growth at 10 µM [32]: 3.06% | inhibition of growth at 10 µM [33]: -3.22% | inhibition of growth at 10 µM [34]: -2.8% | inhibition of growth at 10 µM [35]: 11.4% | inhibition of growth at 10 µM [36]: -16.4% | inhibition of growth at 10 µM [37]: 22.6% | inhibition of growth at 10 µM [38]: 14.2% | inhibition of growth at 10 µM [39]: 11.3% | inhibition of growth at 10 µM [40]: 2.97% | inhibition of growth at 10 µM [41]: 10.4% | inhibition of growth at 10 µM [42]: -0.2% | inhibition of growth at 10 µM [43]: 10.2% | inhibition of growth at 10 µM [44]: -4.34%

O=C(CNc1nc(-c2ccc(Cl)cc2)cs1)Nc1ccc(-c2nc3ccccc3s2)cc1
inhibition of growth at 10 µM [1]: 7.09% | inhibition of growth at 10 µM [2]: 3.58% | inhibition of growth at 10 µM [3]: -0.85% | inhibition of growth at 10 µM [4]: 140% | inhibition of growth at 10 µM [5]: -6.9% | inhibition of growth at 10 µM [6]: 5.04% | inhibition of growth at 10 µM [7]: 12.3% | inhibition of growth at 10 µM [8]: -4.48% | inhibition of growth at 10 µM [9]: 25.1% | inhibition of growth at 10 µM [10]: 4.39% | inhibition of growth at 10 µM [11]: -10.9% | inhibition of growth at 10 µM [12]: 7.04% | inhibition of growth at 10 µM [13]: 70.2% | inhibition of growth at 10 µM [14]: 11.8% | inhibition of growth at 10 µM [15]: -8.34% | inhibition of growth at 10 µM [16]: 1.37% | inhibition of growth at 10 µM [17]: 19.7% | inhibition of growth at 10 µM [18]: 12.4% | inhibition of growth at 10 µM [19]: 8.08% | inhibition of growth at 10 µM [20]: 5.81% | inhibition of growth at 10 µM [21]: 15.3% | inhibition of growth at 10 µM [22]: 33.5% | inhibition of growth at 10 µM [23]: 40.9% | inhibition of growth at 10 µM [24]: 6.86% | inhibition of growth at 10 µM [25]: 0.71% | inhibition of growth at 10 µM [26]: 0.97% | inhibition of growth at 10 µM [27]: 7.26% | inhibition of growth at 10 µM [28]: 5.97% | inhibition of growth at 10 µM [29]: 2.47% | inhibition of growth at 10 µM [30]: 1.83% | inhibition of growth at 10 µM [31]: 2.01% | inhibition of growth at 10 µM [32]: 8.73% | inhibition of growth at 10 µM [33]: 29.5% | inhibition of growth at 10 µM [34]: -0.39% | inhibition of growth at 10 µM [35]: 9.25% | inhibition of growth at 10 µM [36]: 9.63% | inhibition of growth at 10 µM [37]: 9.23% | inhibition of growth at 10 µM [38]: 22.2% | inhibition of growth at 10 µM [39]: -1.86% | inhibition of growth at 10 µM [40]: 3.03% | inhibition of growth at 10 µM [41]: -10.2% | inhibition of growth at 10 µM [42]: -6.02% | inhibition of growth at 10 µM [43]: 4.49% | inhibition of growth at 10 µM [44]: 6.21%
